# Experimental data: publication PMC11992225, “Antibacterial compounds against non-growing and intracellular bacteria” (npj Antimicrobials and Resistance, 2025)
# Where “and” joins values, the source holds several entries; their conditions need not be identical. Identical values can stand only once.
# Key:
# [1] = test system: non-growing P. aeruginosa DSM1117; assay: Dose-dependent killing analysis (CFU spot-plating) of stationary-phase P. aeruginosa; type: cell-based, Pseudomonas aeruginosa; conditions: for log10(CFU/ml) after treatment / killing, average Δlog10(CFU/ml): P. aeruginosa; for log10(CFU/ml) after treatment: individual replicates
# Method in brief: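 Viability by CFU: samples serially diluted 10-fold in PBS, spotted on LB agar, grown overnight at 37 °C, and colonies counted at the lowest resolvable dilution. Non-growing P. aeruginosa DSM1117 had been dosed for 24 h in 1:4 CA-MHB (pH 7.4); three biological replicates.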
# [2] = test system: non-growing S. aureus DSM2569; assay: Dose-dependent killing analysis (CFU spot-plating) of stationary-phase S. aureus; type: cell-based, Staphylococcus aureus; conditions: for log10(CFU/ml) after treatment: S. aureus, individual replicates
# Method in brief: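 Survival was scored as CFU after overnight growth at 37 °C on LB agar, using spots from 10-fold PBS dilutions of treated cultures. Non-growing S. aureus DSM2569 had been exposed to compound for 24 h in 1:4 CA-MHB, pH 7.4. Three biological replicates were run.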
# [3] = test system: intracellular S. flexneri 5a M90T in TC7 cells; assay: microbe, parasite or virus in culture; type: cell-based, Shigella flexneri; conditions: for IC50: Shigella flexneri, TC7, 14 h
# non-growing UPEC CFT073 = assay: Dose-dependent killing analysis (CFU spot-plating) of stationary-phase UPEC; type: cell-based, Escherichia coli; conditions: E. coli in 1:4 CA-MHB (pH 7.4), individual replicates
# Method in brief: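 Killing assessed by CFU counts: overnight 37 °C LB agar spot plates (10 μl drops of 10-fold PBS dilutions) scored at the lowest dilution with distinct colonies. Samples were compound-treated non-growing UPEC CFT073, 200 μl per well. Performed as three biological replicates.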
# [4] = TC7 cells infected with GFP-expressing S. flexneri, 14 h treatment
smiles,measurement,setting,value
N[C@@H]1CCCCN(c2c(F)cc3c(=O)c(C(=O)O)cn(C4CC4)c3c2Cl)C1 [Besifloxacin],log10(CFU/ml) after treatment,[1]; concentration 0.1,8.000 log10(CFU/ml) and 8.602 log10(CFU/ml) and 8.204 log10(CFU/ml)
same,"killing, average Δlog10(CFU/ml)","[1]; concentration 0.1, vs CFU before treatment",0.619 log10(CFU/ml)
same,log10(CFU/ml) after treatment,[1]; concentration 0.5,7.845 log10(CFU/ml) and 7.699 log10(CFU/ml) (2×)
same,"killing, average Δlog10(CFU/ml)","[1]; concentration 0.5, vs CFU before treatment",1.140 log10(CFU/ml)
same,log10(CFU/ml) after treatment,[1]; concentration 2.5,5.000 log10(CFU/ml) (2×) and 4.699 log10(CFU/ml)
same,"killing, average Δlog10(CFU/ml)","[1]; concentration 2.5, vs CFU before treatment",3.988 log10(CFU/ml)
same,log10(CFU/ml) after treatment,[1]; concentration 10,=<4 log10(CFU/ml) (2×) and 4.301 log10(CFU/ml)
same,"killing, average Δlog10(CFU/ml)","[1]; concentration 10, vs CFU before treatment",4.787 log10(CFU/ml)
same,"reduction of bacterial counts, non-growing P. aeruginosa","[1]; at 2.5 µM, 1:4 CA-MHB pH 7.4, 24 h treatment",more than four
same,log10(CFU/ml) after treatment,[2]; concentration 0.1,9.061 log10(CFU/ml) and 9.079 log10(CFU/ml) and 8.740 log10(CFU/ml)
same,log10(CFU/ml) after treatment,[2]; concentration 0.5,8.398 log10(CFU/ml) and 8.431 log10(CFU/ml) and 8.104 log10(CFU/ml)
same,log10(CFU/ml) after treatment,[2]; concentration 2.5,7.196 log10(CFU/ml) and 7.716 log10(CFU/ml) and 6.826 log10(CFU/ml)
same,log10(CFU/ml) after treatment,[2]; concentration 10,7.033 log10(CFU/ml) and 7.000 log10(CFU/ml) and 6.100 log10(CFU/ml)
same,IC50,[3],331 nM
same,"Fluorescence intensity (RFU), Mean, 0.5 x MIC","[3]; TC7 cells infected with GFP-expressing S. flexneri, 14 h treatment, 0.5 x MIC",8982.33 RFU
same,"Fluorescence intensity (RFU), Mean, 2 x MIC",[3]; [4],4305.25 RFU
same,"Fluorescence intensity (RFU), Mean, 4 x MIC",[3]; [4],3977.14 RFU
same,"Fluorescence intensity (RFU), Mean, 8 x MIC",[3]; [4],2983.69 RFU
same,"Fluorescence intensity (RFU), Mean, 16 x MIC",[3]; [4],2325.53 RFU
same,"Fluorescence intensity (RFU), Mean, 32 x MIC",[3]; [4],1789.06 RFU
same,"Fluorescence intensity (RFU), Mean, MIC",[3]; [4],5856.42 RFU
same,log10(CFU/ml) after treatment,non-growing UPEC CFT073; concentration 0.25,8.778 log10(CFU/ml) and 8.699 log10(CFU/ml) and 8.477 log10(CFU/ml)
same,log10(CFU/ml) after treatment,non-growing UPEC CFT073; concentration 0.5,8.491 log10(CFU/ml) and 8.204 log10(CFU/ml) (2×)
same,log10(CFU/ml) after treatment,non-growing UPEC CFT073; concentration 1,7.568 log10(CFU/ml) and 7.322 log10(CFU/ml) and 7.301 log10(CFU/ml)
same,log10(CFU/ml) after treatment,non-growing UPEC CFT073; concentration 2.5,6.462 log10(CFU/ml) and 6.204 log10(CFU/ml) and 6.342 log10(CFU/ml)
same,log10(CFU/ml) after treatment,non-growing UPEC CFT073; concentration 5,6.398 log10(CFU/ml) and 5.342 log10(CFU/ml) and 5.362 log10(CFU/ml)
same,log10(CFU/ml) after treatment,non-growing UPEC CFT073; concentration 10,6.114 log10(CFU/ml) and 5.230 log10(CFU/ml) and 5.000 log10(CFU/ml)
CO[C@@]12[C@H](COC(N)=O)C3=C(C(=O)C(C)=C(N)C3=O)N1C[C@@H]1N[C@@H]12 [Mitomycin C],"killing, average Δlog10(CFU/ml)",[1]; drug concentration 0.1,1.020 log10(CFU/ml)
same,"killing, average Δlog10(CFU/ml)",[1]; drug concentration 0.5,2.346 log10(CFU/ml)
same,"killing, average Δlog10(CFU/ml)",[1]; drug concentration 2.5,4.887 log10(CFU/ml)
same,"killing, average Δlog10(CFU/ml)",[1]; drug concentration 10,4.887 log10(CFU/ml)
same,killing of non-growing P. aeruginosa,"[1]; at 2.5 µM, 24 h treatment",> 4 log10
same,reduction of non-growing S. aureus,"[2]; at 10 µM, 24 h treatment",below the limit of detection
same,IC50,[3],451 nM
same,"Fluorescence intensity (RFU), Mean, 2 x MIC",[3]; [4],2991.58 RFU
same,"Fluorescence intensity (RFU), Mean, 4 x MIC",[3]; [4],2579.31 RFU
same,"Fluorescence intensity (RFU), Mean, 8 x MIC",[3]; [4],2274.5 RFU
same,"Fluorescence intensity (RFU), Mean, 16 x MIC",[3]; [4],1986.92 RFU
same,"Fluorescence intensity (RFU), Mean, 32 x MIC",[3]; [4],1617.58 RFU
same,"Fluorescence intensity (RFU), Mean, MIC",[3]; [4],3708.94 RFU
